Data taken from patent US9464092B2, “Transient protection of normal cells during chemotherapy” (G1 Therapeutics, Inc., priority 2013, dated 2016).

Assays:
Type in all cases: biochemical
CDK2/CyclinE = CDK2/CyclinE (Homo sapiens (Human), UniProt P24941); experiment: CDK2/CyclinE kinase assay (Nanosyn, Caliper microfluidic); conditions: Table 2; for IC50: read-out: CDK2/CycE IC50
Procedure: (§1) Selected compounds disclosed herein were tested in CDK4/cyclinD1, CDK6/CycD3 CDK2/CycA and CDK2/cyclinE kinase assays by Nanosyn (Santa Clara, Calif.) to determine their inhibitory effect on these CDKs. The assays were performed using microfluidic kinase detection technology (Caliper Assay Platform). The compounds were tested in 12-point dose-response format in singlicate at Km for ATP. Phosphoacceptor substrate peptide concentration used was 1 μM for all assays and Staurosporine was used as the reference compound for all assays.

CDK2/CyclinA = CDK2/CyclinA (Homo sapiens (Human), UniProt P24941); experiment: CDK2/CyclinA kinase assay (Nanosyn, Caliper microfluidic); conditions: Table 2; for IC50: read-out: CDK2/CycA IC50
Procedure: as §1, with “assays. Specifics of each assay are as described below:” for “assays.”
CDK2/CyclinA: Enzyme concentration: 0.2 nM; ATP concentration: 50 μM; Incubation time: 3 hr.

CDK4/CyclinD1 = CDK4/CyclinD1 (Homo sapiens (Human), UniProt P11802); experiment: CDK4/CyclinD1 kinase assay (Nanosyn, Caliper microfluidic); conditions: Table 2; read-out: CDK4/CycD1 IC50
Procedure: as §1, with “assays. Specifics of each assay are as described below:” for “assays.”
CDK4/CyclinD1: Enzyme concentration: 1 nM; ATP concentration: 200 μM; Incubation time: 10 hr.

Chain of CDK4/CyclinD1 (P11802 whole entry, species assumed): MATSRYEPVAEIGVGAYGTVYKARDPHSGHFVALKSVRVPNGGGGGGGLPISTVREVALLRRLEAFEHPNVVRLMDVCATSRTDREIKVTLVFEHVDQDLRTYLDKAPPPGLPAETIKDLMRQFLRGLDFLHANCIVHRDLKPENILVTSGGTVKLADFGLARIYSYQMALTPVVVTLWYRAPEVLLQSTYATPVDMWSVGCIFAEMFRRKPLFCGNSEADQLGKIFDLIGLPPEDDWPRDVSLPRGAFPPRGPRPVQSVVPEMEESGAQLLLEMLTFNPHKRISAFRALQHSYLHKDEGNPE
Chain of CDK4/CyclinD1 (P24385 whole entry partner, species assumed): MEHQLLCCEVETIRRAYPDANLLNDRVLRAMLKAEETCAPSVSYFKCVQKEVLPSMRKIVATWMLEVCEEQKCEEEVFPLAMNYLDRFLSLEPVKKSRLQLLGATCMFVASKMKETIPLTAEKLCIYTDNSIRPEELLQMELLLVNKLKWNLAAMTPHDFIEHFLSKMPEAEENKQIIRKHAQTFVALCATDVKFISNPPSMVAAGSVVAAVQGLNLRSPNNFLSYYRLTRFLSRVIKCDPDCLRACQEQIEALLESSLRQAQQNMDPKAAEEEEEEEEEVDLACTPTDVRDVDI

| Compound | Fold Selectivity (CDK2/CycE/CDK4) (CDK2/CyclinE) | IC50 (CDK2/CyclinE) [nM] | Fold Selectivity (CDK2/CycA/CDK4) (CDK2/CyclinA) | IC50 (CDK2/CyclinA) [nM] | IC50 (CDK4/CyclinD1) [nM] |
| --- | --- | --- | --- | --- | --- |
| CCN(CC)C1CCN(c2ccc(Nc3ncc4cc5n(c4n3)C3(CCCC3)CNC5=O)nc2)CC1 [LLL] | 509 | 1620 | 1425 | 4530 | 3.2 |
| O=C1NCC2(CCCCC2)n2c1cc1cnc(Nc3ccc(C(=O)N4CCN(C5CCC5)CC4)cn3)nc12 [LL] | 103 | 202 | 55 | 108 | 2 |
| CC(C)N1CCN(c2ccc(Nc3ncc4cc5n(c4n3)C3(CCCCC3)CNC5=O)nc2)C[C@H]1C [L] | 789 | 4530 | 260 | 1490 | 5.7 |
| CCOCCN1CCN(c2ccc(Nc3ncc4cc5n(c4n3)C3(CCCC3)CNC5=O)nc2)CC1 [MMM] | 600 | 1890 | 314 | 990 | 3.2 |
| C[C@@H]1CN(c2ccc(Nc3ncc4cc5n(c4n3)C3(CCCCC3)CNC5=O)nc2)C[C@H](C)N1C[C@@H](C)O [MM] | 1863 | 3390 | 328 | 597 | 1.8 |
| C[C@H]1CN(c2ccc(Nc3ncc4cc5n(c4n3)C3(CCCCC3)CNC5=O)nc2)CCN1CCC(C)(C)C [M] | 1004 | 2280 | 621 | 1410 | 2.3 |
| CC1CN(c2ccc(Nc3ncc4cc5n(c4n3)C3(CCCC3)CNC5=O)nc2)CCN1CC1CC1 (stereo not shown) [NNN] | 2154 | 2930 | 743 | 1010 | 1.4 |
| C[C@@H]1CN(c2ccc(Nc3ncc4cc5n(c4n3)C3(CCCCC3)CNC5=O)nc2)CCN1C [NN] | 1274 | 4700 | 423 | 1560 | 3.7 |
| O=C1NCC2(CCCC2)n2c1cc1cnc(Nc3ccc(C(=O)N4CCN(CC5CC5)CC4)cn3)nc12 [OOO] | 164 | 393 | 85 | 203 | 2.4 |
| CC1CN(c2ccc(Nc3ncc4cc5n(c4n3)C3(CCCCC3)CNC5=O)nc2)C[C@@H](C)N1CC1CC1 (stereo partly shown) [OO] | 442 | 3980 | 63 | 570 | 9 |
| CC(C)N1CCN(c2ccc(Nc3ncc4cc5n(c4n3)C3(CCCCC3)CNC5=O)nc2)CC1C (stereo not shown) [PP] | 1146 | 3600 | 984 | 3090 | 3.1 |
| C[C@@H]1CN(c2ccc(Nc3ncc4cc5n(c4n3)C3(CCCCC3)CNC5=O)nc2)C[C@H](C)N1 [P] | 1085 | 3560 | 308 | 1010 | 3.3 |
| CCN(CC)C1CCN(c2ccc(Nc3ncc4cc5n(c4n3)C3(CCCCC3)CNC5=O)nc2)C1 (stereo not shown) [QQ] | 746 | 3060 | 627 | 2570 | 4.1 |
| CCN(CC)C1CCN(C2CCN(c3ccc(Nc4ncc5cc6n(c5n4)C4(CCCCC4)CNC6=O)nc3)CC2)C1 (stereo not shown) [RR] | 1374 | 1580 | 603 | 693 | 1.2 |
| C[C@H]1CN(c2ccc(Nc3ncc4cc5n(c4n3)C3(CCCCC3)CNC5=O)nc2)CCN1C [R] | 3918 | 1920 | 2776 | 1360 | 0.5 |
| O=C1NCC2(CCCC2)n2c1cc1cnc(Nc3ccc(N4CCOCC4)nn3)nc12 [SSS] | 1112 | 2280 | 917 | 1880 | 2 |
| CN(C)C1CCN(c2ccc(Nc3ncc4cc5n(c4n3)C3(CCCCC3)CNC5=O)nn2)CC1 [SS] | 1865 | 1460 | 1775 | 1390 | 0.8 |
| C[C@@H](O)CN1CCN(c2ccc(Nc3ncc4cc5n(c4n3)C3(CCCCC3)CNC5=O)nc2)CC1 [S] | 718 | 1250 | 197 | 342 | 1.7 |
| CC(C)N1CCN(c2ccc(Nc3ncc4cc5n(c4n3)C3(CCCCC3)CNC5=O)nn2)CC1 [TT] | 1550 | 1260 | 733 | 596 | 0.8 |
| C[C@@H](O)CN1CCN(c2ccc(Nc3ncc4cc5n(c4n3)C3(CCCC3)CNC5=O)nc2)C[C@@H]1C [VV] | 809 | 2630 | 243 | 789 | 3.3 |
| C[C@@H]1CN(c2ccc(Nc3ncc4cc5n(c4n3)C3(CCCCC3)CNC5=O)nc2)CCN1 [V] | 1224 | 3500 | 745 | 2130 | 2.9 |
| CC1CN(c2ccc(Nc3ncc4cc5n(c4n3)C3(CCCCC3)CNC5=O)nc2)CCN1CC(C)(C)O (stereo not shown) [W] | 1481 | 3970 | 201 | 539 | 2.7 |
| C[C@H](O)CN1CCN(c2ccc(Nc3ncc4cc5n(c4n3)C3(CCCC3)CNC5=O)nc2)C[C@H]1C [XX] | 5615 | 7300 | 4838 | 6290 | 1.3 |
| O=C1NCC2(CCCCC2)n2c1cc1cnc(Nc3ccc(N4CCC(N5CCC(C(F)(F)F)CC5)CC4)cn3)nc12 [X] | 12975 | 11600 | 2058 | 1840 | 0.9 |
| O=C1NCC2(CCCCC2)n2c1cc1cnc(Nc3ccc(C(=O)N4CCNCC4)cn3)nc12 [Y] | 50 | 124 | 25 | 61 | 2.5 |
| C[C@H](O)CN1[C@H](C)CN(c2ccc(Nc3ncc4cc5n(c4n3)C3(CCCCC3)CNC5=O)nc2)C[C@@H]1C [Z] | 1174 | 3710 | 205 | 647 | 3.2 |
